Measurements taken from patent US10905703B2, “Preparation of a composition containing stilbene glycoside” (priority 2015, dated 2021).

Assays:
[1] = test system: male CF-1 mice; assay: Animal study with pure trans- and cis-stilbene glycoside in high fat diet induced male CF-1 mice; type: in vivo; conditions: for serum glucose level / GTT: rise in blood glucose level / effect on glucose intolerance / serum insulin levels: 0.01% in drinking water; for serum glucose level: HFD for 12 weeks, FIG. 12; for GTT: rise in blood glucose level / effect on glucose intolerance / serum insulin levels: HFD 12 weeks; for GTT: rise in blood glucose level / effect on glucose intolerance: intraperitoneal glucose; for serum insulin levels: vs HF group
Text: Male CF-1 mice were selected as the model for type 2 diabetes. The mice were kept on Western HFD for 12 weeks and were divided into five groups with 10 each. Group I: Normal control which had free access to drinking water and normal Chow; Group II: Diabetic control which had free access to drinking water and Western HFD; Group III: Treatment group which had free access to drinking water with 0.01% of pure trans-stilbene glycoside and HFD; Group IV: Treatment group which had free access to drinking water with 0.01% of pure cis-stilbene glycoside and Western HFD. Group V: […] Body weight, food and water uptake of the mice were taken on a regular basis. After 12 weeks, all the experimental mice were sacrificed. Body weight, blood glucose and blood insulin levels were evaluated as described before. Glucose tolerance test was also carried out at the end of the study.

[2] = test system: phosphoenolpyruvate carboxykinase (PEPCK) mRNA expression; assay: PEPCK assay (qPCR of Dex-cAMP induced PEPCK mRNA) in HepG2 cells; type: cell-based; conditions: for concentration dependence of PEPCK suppression: 30 μM vs 100 μM; for reduction of PEPCK mRNA compared to Dex/cAMP group: comparative Ct method; for suppression of Dex/cAMP-induced up-regulation of PEPCK transcription: normalized with β-actin, FIG. 13A
Description: The HepG2 cells were plated in 24-well tissue culture plates and were grown to near confluence in Dulbecco's modified Eagle's medium containing 2.5% (vol/vol) newborn calf serum and 2.5% (vol/vol) fetal calf serum. […]
Total RNA was extracted from HepG2 cells using Trizol reagent, following the manufacturer's instructions. RNA was quantified spectrophotometrically by absorbance measurements at 260 and 280 nm. Quality of RNA was assessed by separation in gel electrophoresis. RNA was then treated with Dnasel (Invitrogen), following the manufacturer's guidelines, to remove any traces of DNA contamination. The cDNAs were synthesized with […] of RNA for each sample, using Stratascript reverse transcriptase (Stratagene, La Jolla, Calif.), following the manufacturer's protocol. The synthesized cDNAs were diluted fourfold. Five microliters of each of these diluted samples was used for PCR reactions of 25 ηL final volume. The other components of the PCR reactions were 0.5 ηL of 6 ηM gene-specific primers and 12.5 ηL of Brilliant SYBR Green PCR master mix (containing green jump-start Taq ready mix). ROX (Stratagene, La Jolla, Calif.) was used as a reference dye. The primers were selected using the Primer Express version 2.0 software (Applied Biosystems, Foster City, Calif.). These primers generated a 76-bp product from β-actin mRNA. The intron-spanning forward primer was selected to cover the exon 9-10 boundary. The reverse primer was selected from exon 10. The oligos were synthesized by IDT. These primers generated a 74-bp product from PEPCK mRNA and a 207-bp product from genomic DNA.
Quantitative PCR (qPCR) amplifications were performed on an MX3000p system (Stratagene, La Jolla, Calif.) using one cycle at 50° C. for 2 min and one cycle of 95° C. for 10 min, followed by 40 cycles of 15 s at 95° C. and 1 min at 60° C. The dissociation curve was completed with one cycle of 1 min at 95° C., 30 s at 55° C., and 30 s at 95° C. Non-RT control and no-template control were included in each experiment as quality control steps.
PEPCK mRNA expressions were analyzed using the ΔΔCT method and normalized with respect to the expression of the β-actin house keeping gene. The ΔΔCT Values obtained from these methods reflect the relative mRNA quantities for a specific gene in response to a treatment as relative to a calibrator. The Dex-cAMP treatment (positive control) served as the calibrator sample in this study. The PECPK gene expression of the calibrator sample was assigned to a value of 1.0. A value of <1.0 indicates transcriptional down-regulation (inhibition of gene expression) relative to the calibrator. Amplification of specific transcripts was further confirmed by obtaining melting curve profiles. All samples were run in duplicate.

[3] = test system: female KK CgAy/J mice; assay: Anti-diabetic effect of stilbene glycoside in female KK CgAy/J mice incl. glucose and insulin tolerance tests; type: in vivo; conditions: for blood / serum glucose level vs diabetic control: stilbene glycoside 0.075% in drinking water, metformin 300 mg/kg; for insulin tolerance test: level of glucose: 30 minutes after insulin injection
Text: Female KK CgAy/J mice were also utilized in this experiment and handled with the same protocol as in 1.2.3. The mice were divided into four groups with 10 each, and fed with Western HFD. […] Body weight, food and water uptake of the mice were taken on a regular basis. After 12 weeks, all the experimental mice were sacrificed. Similar measurements were taken to the previous experiment with PM extract. Before sacrifice, all the experimental mice were subjected to glucose and insulin tolerance tests. For glucose tolerance test, mice were fasted overnight and injected with glucose solution at 1 g/10 ml and 10 ml/kg body weight. The change in blood glucose level was monitored during the following two hours. For insulin tolerance test, mice were fasted for 5 hours and injected with insulin solution at 1 u/ml and 10 ml/kg body weight. The change in blood glucose level was monitored during the following two hours.

[4] = rats, cited from earlier work
[5] = cited from earlier work
[6] = compared with resveratrol; cited from earlier work
[7] = test system: female KK mice; assay: Animal study with trans- and cis-stilbene glycoside extracts in HFD-induced female KK mice; type: in vivo; conditions: 18 weeks HFD, solutions in drinking water
Description: Female KK mice were purchased from Jackson labs (Barr Harbor, Me.) and were housed in stainless steel wire-bottomed cages and acclimatized under laboratory conditions (19-23° C., humidity 60%, 12 h light/dark cycle). Normal control mice (n=10) were fed with control diet which was normal Chow 5001 from LabDiet (St. Louis, Mo.) and was composed of 28.5 kcal % protein, 58 kcal % carbohydrate and 13.5 kcal % fat. Diabetic control mice (n=10) were induced with HFD (Research Diets, New Brunswick, N.J.) composed of 20 kcal % protein, 20 kcal % carbohydrate, and 60 kcal % fat (from butter) for 18 weeks. Three solutions were administered to mice (n=10 each) on HFD ad libitum and the compositions are shown below. Solution 1: pure trans-stilbene glycoside (0.05% in drinking water), HPLC chromatogram in FIG. 3.2 (A); Solution 2: 60% ethanol extract of PM root powders, obtained according to procedure in Section 1.2.1 (proportion of cis-stilbene glycoside to trans-stilbene glycoside is approximately 1:20, 0.075% in drinking water), HPLC chromatogram in FIG. 3.2 (B); Solutions 3: obtained from exposing solution 2 under UV-light overnight (proportion of cis-stilbene glycoside to trans-stilbene glycoside is approximately 2:3, 0.075% in drinking water), HPLC chromatogram in FIG. 3.2 (C). After 18 weeks, body weight and blood glucose of all mice were measured.

## Cn1c(=O)c2c(ncn2C)n(C)c1=O [caffeine, reference compound]
[1]
  serum glucose level: significantly decrease

## OC[C@H]1O[C@@H](Oc2c(O)cc(O)cc2/C=C/c2ccc(O)cc2)[C@H](O)[C@@H](O)[C@@H]1O [cis-stilbene glycoside, 2,3,5,4-tetrahydroxystilbene 2-O-β-glucopyranoside]
[2]
  concentration dependence of PEPCK suppression: suppressed more efficiently at 30 μM than at 100 μM
  suppression of Dex/cAMP-induced up-regulation of PEPCK transcription: effectively suppress
[2]; 30 μM
  reduction of PEPCK mRNA compared to Dex/cAMP group: 61.7%
[1]
  GTT: rise in blood glucose level / effect on glucose intolerance: greatly suppressed
  serum insulin levels: significantly lowered
  serum glucose level: significantly decrease
[1]; cis group relative to trans group
  Calculated HOMA-IR lower than that in trans-stilbene glycoside group: 102.7%

## CN(C)C(=N)N=C(N)N [metformin, reference compound]
[3]; 12 weeks HFD, FIG. 6
  blood / serum glucose level vs diabetic control: effectively brought down
[3]; FIG. 7B
  insulin tolerance test: level of glucose: higher level of glucose
[3]; two hours after insulin injection, FIG. 7B
  insulin tolerance test: blood glucose: dropped to a lower level than that of stilbene glycoside group

## OC[C@H]1O[C@@H](Oc2c(O)cc(O)cc2/C=C/c2ccc(O)cc2)[C@H](O)[C@@H](O)[C@@H]1O [stilbene glycoside, 2,3,5,4-tetrahydroxystilbene 2-O-β-glucopyranoside]
[4]; single intravenous or oral administration
  time of distribution: ≤ 30 min
[4]; within 24 hr
  Total recovery of unchanged stilbene glycoside in bile: 0.041%
  Total recovery of unchanged stilbene glycoside in feces: 0.06%
  amount of unchanged stilbene glycoside excreted in the urine: lower than Lower Limit of Quantification (LLOQ)
[4]
  Absolute bioavailability: 40%
[4]; metabolites including monoglucuronide and the deglycosidated form
  form of excretion: excreted mainly in the forms of metabolites
[5]
  solubility: soluble in water, methanol and ethanol
[3]; 12 weeks HFD, 0.075% in drinking water, FIG. 6
  serum insulin level vs diabetic control: elevated
[3]; 12 weeks HFD, FIG. 6
  blood / serum glucose level vs diabetic control: elevated
[3]; 30 minutes after glucose injection (1 g/kg), FIG. 7A
  glucose tolerance test: blood glucose level: the most elevated
[3]; FIG. 7B
  insulin tolerance test: level of glucose: higher level of glucose
[3]; at the end of the test (two hours), FIG. 7A
  glucose tolerance test: blood glucose: remained much higher than normal control and metformin groups
[3]; overall finding of glucose tolerance test
  glucose tolerance: glucose intolerant
[6]
  antioxidant activity: higher antioxidant activity than resveratrol

## OC[C@H]1O[C@@H](Oc2c(O)cc(O)cc2/C=C/c2ccc(O)cc2)[C@H](O)[C@@H](O)[C@@H]1O [trans-stilbene glycoside, 2,3,5,4-tetrahydroxystilbene 2-O-β-glucopyranoside]
[7]
  high fat induced body weight gain compared to diabetic control: none of the three solutions significantly decreased
[2]
  concentration dependence of PEPCK suppression: higher concentration resulted in lower level of PEPCK transcription
  suppression of Dex/cAMP-induced up-regulation of PEPCK transcription: effectively suppress
[2]; 100 μM
  reduction of PEPCK mRNA compared to Dex/cAMP group: 53.3%
[1]
  GTT: rise in blood glucose level / effect on glucose intolerance: absent
  serum insulin levels: significantly lowered
  serum glucose level: significantly decrease
